Results reported in the PolyMetriX glass transition set.
± gives the standard deviation of the reports.

| SMILES | glass transition temperature |
| --- | --- |
| *CC(C)(CO*)COCC(F)(F)C(F)(F)C(F)(F)C(F)(F)C(F)(F)C(F)(F)C(F)(F)F (repeat unit) | -49.00 °C |
| *C(=O)Nc1ccc2c(c1)-c1cc(NC(=O)c3ccc4c(c3)C(=O)N(c3cccc(P(=O)(c5ccccc5)c5cccc(N6C(=O)c7ccc(*)cc7C6=O)c5)c3)C4=O)ccc1C2 (repeat unit) | 248.00 °C |
| *CC/C=C(/*)C(C)(C)C (repeat unit) | 20.00 °C |
| *Oc1ccc(CC(NC(=O)CCc2ccc(OC(=O)CCC(*)=O)cc2)C(=O)OCCCCCCCC)cc1 (repeat unit) | 48.00 °C |
| *CC(*)(C#N)C(=O)OCCCCCCC (repeat unit) | 102.00 °C |
| *c1ccc(Oc2ccc(C(=O)c3ccc(Oc4ccc(C(=O)c5ccc(Oc6ccc(-c7nc8ccccc8n7-c7ccc(-n8c(*)nc9ccccc98)cc7)cc6)cc5)cc4)cc3)cc2)cc1 (repeat unit) | 223.00 °C |
| *Oc1ccc(C2(c3ccc(OC4(F)C(*)(F)C(F)(F)C4(F)F)cc3)c3ccccc3-c3ccccc32)cc1 (repeat unit) | 228.00 °C |
| *CC(*)(C)C(=O)OCc1ccc[se]1 (repeat unit) | 56.00 °C |
| *CCCCCCCCCCCCCCCCCCNC(=O)NCc1ccc(CNC(=O)N*)cc1 (repeat unit) | 52.00 °C |
| *CC(*)C(=O)OCCCC (repeat unit) [Poly(tert-butyl acrylate)] | -51.58 ± 45 °C |
| *c1ccc(-c2ccc(-c3c(-c4ccccc4)nc4ccc(Oc5ccc6nc(-c7ccccc7)c(*)c(-c7ccccc7)c6c5)cc4c3-c3ccccc3)cc2)cc1 (repeat unit) | 330.00 °C |
| *CC(*)OC(=O)c1cccnc1 (repeat unit) | 86.50 °C |
| *c1ccc(Oc2ccc(Oc3ccc(Oc4ccc(-c5nc(*)nc(-c6ccccc6)n5)cc4)cc3)cc2)cc1 (repeat unit) | 203.00 °C |
| *C(=O)OCCN(CCOC(=O)c1ccc2c(c1)C(=O)N(c1c(C)cc(Cc3cc(C)c(N4C(=O)c5ccc(*)cc5C4=O)c(C)c3)cc1C)C2=O)c1ccc(/N=N/c2ccc([N+](=O)[O-])cc2[N+](=O)[O-])cc1 (repeat unit) | 176.00 °C |
| *CC(*)c1ccc2ccccc2c1 (repeat unit) | 146.50 °C |
| */C=C/C1CC(*)C(C(=O)OC(C)(C)C)C1C(=O)OC(C)(C)C (repeat unit) | 83.40 °C |
| *Oc1ccc(NC(=O)c2cccc(C(=O)Nc3ccc(Oc4ccc(C(c5ccc(*)cc5)(C(F)(F)F)C(F)(F)F)cc4)cc3)c2)cc1 (repeat unit) | 228.50 °C |
| *CC(COCOCC(C)([N+](=O)[O-])[N+](=O)[O-])O* (repeat unit) | -15.00 °C |
| *CCOCC(CCl)O* (repeat unit) | -40.00 °C |
| *OC1C(CO)OC(*)C(N)C1O (repeat unit) | 194.00 °C |
| *Nc1ccc(NC(=O)c2ccc(NC(=O)CCCCCCCCC(=O)Nc3ccc(C(*)=O)cc3)cc2)cc1C(=O)OCCCCCCCCCCCCCCCCCC (repeat unit) | 280.00 °C |
| *CC(CSCCCCC)O* (repeat unit) | -68.00 °C |
| *CCCCCCCCCCOC(=O)NCCCCCCNC(=O)O* (repeat unit) | 55.00 °C |
| *c1ccc(Oc2ccc(-c3csc(/N=C/c4ccc(OCCCCCCCCOc5ccc(/C=N/c6nc(*)cs6)cc5)cc4)n3)cc2)cc1 (repeat unit) | 150.00 °C |
| *CC(C)S* (repeat unit) [Poly(propylene sulfide) ] | -47 ± 2.7 °C |
| *c1ccc(Oc2ccc(-c3nc(-c4cccc(-c5nnc(-c6ccccc6)c(*)n5)n4)nnc3-c3ccccc3)cc2)cc1 (repeat unit) | 219.00 °C |
| *CCCCCCOC(=O)OCCCCCCOC(=O)OCCCCCCOc1ccc(-c2ccc(O*)cc2)cc1 (repeat unit) | 16.60 °C |
| *O[Si](*)(C)CCCCCC (repeat unit) | -110.8 °C |
| *C1OCOC(C(*)(F)F)C1(F)F (repeat unit) | 125.00 °C |
| *CC(C)(N=C=O)C1C(=O)OC(=O)C1* (repeat unit) | 100.00 °C |

Now from value to compound:

| glass transition temperature | SMILES |
| --- | --- |
| 202.00 °C | *Nc1ccc(-c2ccc(NC(=O)c3cc(NC(=O)c4ccc(NC(=O)C(C)N5C(=O)c6ccccc6C5=O)cc4)cc(C(*)=O)c3)cc2)cc1 (repeat unit) |
| 175.00 °C | *Oc1ccc(C(=O)NNC(=O)c2ccc(C(=O)NNC(=O)c3ccc(OC(=O)c4cccc(C(*)=O)c4)cc3)cc2)cc1 (repeat unit) |
| 207.00 °C | *C(=O)Nc1ccc(Oc2ccc(C(C)(C)c3ccc(Oc4ccc(NC(=O)c5ccc6c(c5)C(=O)N(c5ccc(Oc7cccc(N8C(=O)c9ccc(*)cc9C8=O)c7)cc5)C6=O)cc4)cc3)cc2)cc1 (repeat unit) |
| 178.00 °C | *C(=O)NCCN(CCNC(=O)c1cccc(N2C(=O)c3ccc(*)cc3C2=O)c1)c1ccc(/C=C/c2ccc([N+](=O)[O-])cc2)cc1 (repeat unit) |
| 178.00 °C | *Nc1cc(NC(=O)Nc2ccc(Cc3ccc(NC(*)=O)cc3)cc2)cc(C(=O)Nc2cccc3c2C(=O)c2ccccc2C3=O)c1 (repeat unit) |
| 265.00 °C | *CC1CC2CC1C1CCC(Cn3c(=O)c4cc5c(=O)n(*)c(=O)c5cc4c3=O)C21 (repeat unit) |
| 278.00 ± 14 °C | *c1ccc(Oc2ccc(Oc3ccc(N4C(=O)c5ccc(-c6ccc7c(c6)C(=O)N(*)C7=O)cc5C4=O)cc3)cc2)cc1 (repeat unit) |
| 161.00 °C | *Oc1ccc(C(C)(C)c2ccc(OC(=O)c3ccccc3-c3ccccc3C(*)=O)cc2)cc1 (repeat unit) |
| 234.00 °C | *c1ccc2c(c1)C(=O)N(c1ccc(OC(C)COc3ccc(N4C(=O)c5ccc(C(*)(C(F)(F)F)C(F)(F)F)cc5C4=O)cc3)cc1)C2=O (repeat unit) |
| 120.00 °C | *Nc1cc(NC(=O)c2ccc(-c3ccc(C(*)=O)cc3)cc2)cc(-c2nnc(-c3ccccn3)o2)c1 (repeat unit) |
| 83.00 °C | *Oc1ccc(CNC(=O)c2cccc(C(=O)NCc3ccc(OC4COC5C(*)COC45)cc3)c2)cc1 (repeat unit) |
| 275.00 °C | *c1ccc(Oc2ccc(C(C)(C)c3ccccc3)cc2)c(N2C(=O)c3ccc(-c4ccc5c(c4)C(=O)N(*)C5=O)cc3C2=O)c1 (repeat unit) |
| 64.00 °C | *c1cc(CC(=O)OCCCCCCOc2ccc(/N=N/c3ccc(C#N)cc3)cc2)c(*)s1 (repeat unit) |
| 241.00 °C | *CC(=O)Nc1ccc(Oc2ccc(S(=O)(=O)c3ccc(Oc4ccc(NC(=O)CN5C(=O)c6ccc(C(c7ccc8c(c7)C(=O)N(*)C8=O)(C(F)(F)F)C(F)(F)F)cc6C5=O)cc4)cc3)cc2)cc1 (repeat unit) |
| 144.00 °C | *CC(*)(CC(=O)OC)C(=O)OC12CC3CC(C)(CC(C)(C3)C1)C2 (repeat unit) |
| 41.50 °C | *CCC1C(=O)N(CCCCCC)C(=O)C1* (repeat unit) |
| 49.00 °C | *CC(COc1ccc(O*)cc1)OC(C)=O (repeat unit) |

| glass transition temperature | SMILES |
| --- | --- |
| 109.40 °C | *Cc1cc(C23CC4CC(CC(C4)C2)C3)cc(CN(*)c2ccccc2)c1O (repeat unit) |
| 299.00 °C | *c1ccc2c(c1)C(=O)N(c1ccc(Oc3ccc(N4C(=O)c5ccc(C(*)(C(F)(F)F)C(F)(F)F)cc5C4=O)cc3Br)c(Br)c1)C2=O (repeat unit) |
| 185.00 °C | *NC1CCC(CC2CCC(NC(=O)CCCCC(*)=O)CC2)CC1 (repeat unit) |
| 310.00 °C | *c1ccc(Oc2ccc(Oc3ccc(-n4c(=O)c5cc6c(=O)n(*)c(=O)c6cc5c4=O)cc3)cc2C)cc1 (repeat unit) |
| 72.00 °C | *Oc1ccc(CC(NC(=O)CCc2ccc(OC(=O)COCC(*)=O)cc2)C(=O)OCC(C)C)cc1 (repeat unit) |
| 246.00 °C | *C(=O)c1ccc2c(c1)C(=O)N(c1ccc(Oc3cc4ccccc4cc3Oc3ccc(N4C(=O)c5ccc(*)cc5C4=O)cc3)cc1)C2=O (repeat unit) |
| 286.00 °C | *c1ccc(Oc2cccc(N3C(=O)c4ccc(-c5cccc6c5C(=O)N(*)C6=O)cc4C3=O)c2)cc1 (repeat unit) |
| 373.00 °C | *c1ccc(-c2ccc(-n3c(=O)c4cc5c(=O)n(*)c(=O)c5c(C(F)(F)F)c4c3=O)cc2C)c(C)c1 (repeat unit) |
| 39.00 °C | *C(=O)OCCCSCCCCSCCCOC(=O)c1ccc(N2C(=O)c3ccc(*)cc3C2=O)cc1 (repeat unit) |
| 249.00 °C | *c1ccc(Oc2ccc(Oc3ccc(N4C(=O)c5ccc(Oc6cccc7c6C(=O)N(*)C7=O)cc5C4=O)cc3)cc2)cc1 (repeat unit) |
| 236.00 °C | *c1ccc(C(C)(C)c2ccc(N3C(=O)c4ccc(Oc5ccc6cc(Oc7ccc8c(c7)C(=O)N(*)C8=O)ccc6c5)cc4C3=O)cc2)cc1 (repeat unit) |
| 313.00 °C | *c1ccc(OC(=O)c2cc(Cl)cc(C(=O)Oc3ccc(C4(*)OC(=O)c5ccccc54)cc3)c2)cc1 (repeat unit) |
| 324.00 °C | *c1ccc(N2C(=O)c3ccc(Oc4ccc(C(C)(C)c5ccc(Oc6ccc7c(c6)C(=O)N(c6ccc8[nH]c(*)nc8c6)C7=O)cc5)cc4)cc3C2=O)cc1 (repeat unit) |
| 177.00 °C | *c1ccc(Sc2ccc(Sc3ccc(Sc4ccc(Sc5ccc(N6C(=O)c7ccc(Sc8ccc(Sc9ccc(Sc%10ccc%11c(c%10)C(=O)N(*)C%11=O)cc9)cc8)cc7C6=O)cc5)s4)s3)s2)cc1 (repeat unit) |
| 58.00 °C | *CCCCCCCCCCCC(=O)Oc1ccc(OC(=O)c2ccc3c(c2)C(=O)N(*)C3=O)cc1 (repeat unit) |
| 177.00 °C | *c1cccc(Oc2cccc(Oc3cccc(N4C(=O)C5C6C=CC(C7C(=O)N(*)C(=O)C67)C5C4=O)c3)c2)c1 (repeat unit) |
| 238.00 °C | *Nc1ccc(Cc2ccc(NC(=O)c3cc(NC(=O)c4ccc(NC(=O)C(CC(C)C)N5C(=O)c6ccccc6C5=O)cc4)cc(C(*)=O)c3)cc2)cc1 (repeat unit) |
